From patent publication US12168673B2 (Mitopower, Inc., priority 2022, dated 2024)

Key:
[1] = system: cisplatin induced acute kidney injury (AKI) mouse model; assay: Cisplatin induced kidney injury model in mice; assay type: in vivo, BALB/c female mice
Experimental: The study was performed using protocols approved by the Institutional Animal Ethics Committee (IAEC) based on CPCSEA guidelines for animal care and use. BALB/c female mice of 6-8 weeks age were divided into 5 groups with each group containing 6 members. Animal room environment were monitored for temperature and relative humidity twice a day. The temperature range was 22° C.±3° C. and the humidity range was 30-70%, although the upper range for humidity may be exceeded during room cleaning. Animals were housed in IVC systems and provided with cycles of 12 hours of light and 12 hours of darkness through the study. SDS Feed (M/s. SDS diets services) and autoclaved drinking water was provided ad libitum.
The vehicle for cisplatin was 0.9% saline while the vehicle for compound 100 was PBS at pH 6. The compound 100 formulations were prepared just prior to doing each time. The study was performed in 5 groups.
Animals were acclimatized prior to the study. Pretreatment with compound 100 was administered for 3 days before cisplatin dosing. Animals were weighed and administered vehicle in group 1 and cisplatin was administered at a single dose of 25 mg/kg to groups 2, 3, 4 and 5 intraperitonially on day-3 of the study. The oral dose groups (groups 3-5) were dosed with compound 100 twice daily for 6 days (3 days pre-dose and 3 days post-dose cisplatin).
Blood samples were collected at end of the study (12 h, post last dose terminal sampling, cardiac puncture) in 2 ml Eppendorf tubes, and serum was separated and stored at −20° C. for clinical chemistry analysis.
All animals survived and were sacrificed at end of the study (12 hours post last test compound dose) with an overdose of CO2. […] Serum creatinine and blood urea nitrogen (BUN) was determined using a clinical chemistry analyzer on the final day of blood collection and the results are graphically illustrated for groups 1-5 in FIG. 13 and FIG. 14, respectively.

[2] = Distribution in kidney and liver tissue after 24 hrs in rats; conditions: compared with nicotinic acid
[3] = Long term solid stability at −15° C. (purity by UPLC); assay type: physicochemical; conditions: for Purity % by UP LC: solid state, −15° C. (freezer)
Experimental: The compound from this vial was assessed for purity by UPLC at two different timepoints: Day 0 and Day 93 (3 months).

human hepatocytes = assay: Human hepatocyte clearance; assay type: in vitro ADME
Outline: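 Cryopreserved human hepatocytes at a 2 million cell working stock mixed 1:1 with 2 μM compound working stock at 37 °C, in duplicate. Samples quenched in acetonitrile with internal standard at 0, 15, 30, 60 and 90 min, then analysed by LC-MS/MS.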

[4] = Human plasma protein binding (RED dialysis); conditions: human, plasma, human plasma, 10 μM, 5 hours dialysis
Experimental: The test compounds were weighed and prepared as 10 mM stocks in 100% DMSO. 10 μM is the final test concentration for all compounds.
The samples were prepared by spiking test compound(s) in plasma at 10 μM final concentration. 200 μL of plasma containing the test compound was added into the donor well (RED Chamber) of the insert. Simultaneously 350 μL of dialysis buffer (1×PBS) was added into the receiver well (white chamber). Two measurements were made for each test compound. The plate was covered with a sealer and incubated at 37° C. degrees on an orbital shaker at 500 rpm for 5 hours.
After incubation, 25 μl of plasma (RED chamber) and 25 μl of buffer (white chamber) samples were separately collected into separate centrifugation tubes. Plasma and buffer samples were precipitated with 200 μL of 100% acetonitrile containing internal standards. 25 μl of T0 (T Zero) plasma samples (samples before 5 hours incubation) were collected (To samples were processed immediately after the preparation of plasma working stock solution. These samples serve as a measure for calculating the percentage recovery of the test compound and precipitated using 100% acetonitrile containing internal standards). The samples were vortexed at 1000 rpm for 5 min and centrifuged at 4000 rpm for 10 min. The supernatant was diluted 2-fold with water and injected into LC-MS/MS.
The % of Plasma bound/unbound fraction was calculated by the following equation: % Unbound or % free=100*(Fc/Tc); % Recovery=100 (Fc+Tc)/[…] where Tc=Total compound concentration as determined by the calculated concentration on the plasma side of the membrane (concentration in plasma chamber), Fc=Free compound concentration as determined by the calculated concentration on the buffer side of the membrane (concentration in buffer chamber) and T0=Total compound concentration as determined before dialysis.

[5] = mice, 50, 250 and 500 mg/kg PO twice daily for 6 days, cisplatin 25 mg/kg IP, p<0.05

SMILES | BUN compared to group 2 (cisplatin only) [1, 5] | serum creatinine compared to group 2 (cisplatin only) [1, 5] | nephroprotection (conclusion) ([1]; mice, all three oral doses) | delivery of nicotinic acid into the tissues [2] | Purity % by UP LC ([3]; Day 0) [%] | Purity % by UP LC ([3]; Day 93) [%] | solid state stability (in words) ([3]; stored at −15° C. for up to three months) | Remarks (clearance class) (human hepatocytes) | fraction unbound at 5 h, 10 μM ([4]; % Bound in plasma) | fraction unbound at 5 h, 10 μM ([4]; % Unbound in plasma) | fraction unbound at 5 h, 10 μM ([4]; Fraction unbound)
O=C(OC1O[C@H](CO)[C@@H](O)[C@H]1O)c1cccnc1 (stereo partly drawn) [Compound 100, (3R, 4S, 5R)-3,4-dihydroxy-5-(hydroxymethyl) tetrahydrofuran-2-yl nicotinate] | significant reduction | significant reduction | nephroprotection | more efficiently than nicotinic acid | 98.92 | 99.62 | stable |  |  |  | 
COC(=O)[C@@H](C)NP(=O)(OC[C@H]1OC(OC(=O)c2cccnc2)[C@H](O)[C@@H]1O)Oc1ccccc1 (stereo partly drawn) [Compound 101, (3R, 4S, 5R)-3,4-dihydroxy-5-(((((1-methoxy-1-oxopropan-2-yl)amino)(phenoxy)phosphoryl)oxy)methyl)tetrahydrofuran-2-yl nicotinate] |  |  |  |  |  |  |  | high clearance and High | 0.306 | 0.306 | 0.31
